# Results: patent US7576177B2, “Hsp peptides and analogs for modulation of immune responses via antigen presenting cells” (Andromeda Biotech Ltd., priority 2002, dated 2009)
# Columns and labels:
# [1] = system: BALB/c DO.11.10 bone marrow cells cultured for dendritic cells, cocultured with DO.11.10 T cells; assay: Education of mouse dendritic cells and stimulation of T-cells, cytokine content of supernatant; assay type: cell-based; conditions: for IFN secretion of T cells / IL-4 secretion of T cells / IL-10 secretion of T cells / IL-12 secretion of T cells: 0.3 nM Ova peptide
# Description: Whelan et al. (J. Immunol 164, 6453-6460, 2000) addressed the problem in mice by an experiment in which mouse bone marrow cells were grown for 6 days in culture with GM-CSF to give immature dendritic cells. These dendritic cells were then incubated overnight with LPS (known to drive cells to DC1) or with a nematode antigen. The reason for the choice of nematode antigen was that injection of this antigen in vivo gives rise to a Th2 response in animals. After this so-called “education” of the dendritic cells, they were washed and subsequently incubated with naive T cells in the presence of antigenic stimulus. The experiment was possible because of the use of transgenic mice in which all the T cells respond to the same peptide (OVA323-339) which absolves the system from any question of bias of the T cell response at the level of the T cells. Any bias should be a consequence of the “education” of the dendritic cells. After three days of incubation the cytokine responses produced by the T cells, were measured by ELISA. […] In contrast, nematode antigen incubation gave rise to more IL-4 (Th2) than did controls while the LPS incubation inhibited the IL4 response. Therefore, the nematode antigen was said to drive cells to DC2. A similar method was used for testing the compounds of the present invention: • 1. Bone marrow cells were extracted from the leg bones of DO.11.10 mice transgenic for the TcR. All cells from these mice respond to the OVA peptide ([…]). • 2. Bone marrow cells were plated at 10^6 cells/ml in 100 mm diameter tissue culture petri dishes in Iscove's medium supplemented with 10% FCS, […], 1 mM sodium pyruvate, penicillin/streptomycin (according to manufacturer's recommendations), non-essential amino acids, 50 μM β-mercaptoethanol and 10 ng/ml mGM-CSF. • 3. After 4 days, the medium was carefully removed and replaced with fresh medium • 4. After 6 days, the non-adherent cells were harvested and used as immature dendritic cells • 5. The immature dendritic cells are plated at 1×10^6 cells/ml, 1 ml/well in 24 well plates in the above medium with various reagents added at various concentrations and incubated overnight. This is the stage in which the dendritic cells are “educated” • 6. The next day the cells were harvested and washed 3 times then resuspended at 5×10^4 cells/ml in 1 ml of the above medium but without the addition of GM-CSF to be cocultured with T cells • 7. […] 5×10^5 T cells were cultured with the dendritic cells from step 6 in the presence of various concentrations of the OVA peptide (0, 0.3 nM, 3 nM and 30 nM). • 9. After 3 days PMA (50 ng/ml) and ionomycin (500 ng/ml) were added to further stimulate the cells. • 10. The next day the cell supernatants were collected and assayed for cytokine content (Interferon γ, IL4, IL-10 and IL-12).
# The compound was tested for stimulation of DO.11.10 bone marrow cells according to the assay described above (Production and education of mouse dendritic cells and stimulation of T-cells).
# BALB/c DO.11.10 bone marrow cells were cultured for dendritic cells and then stimulated with LPS 1 μg/ml, LPS 10 μg/ml, hsp60 3 μg/ml, hsp60 10 μg/ml, p277 5 μg/ml and p277 50 μg/ml. The cells were then transferred to wells with T cells from fresh BALB/c DO.11.10 mice and stimulated with OVA peptide at different concentrations (0, 0.3 nM, 3 nM, 30 nM). Supernatant was collected after 48 hours for assay. 30 μl was taken for IFN, 40 μl for IL4 and IL-10 and 50 μl for IL-12 assays. The results are presented in the following tables, as amount of cytokine (pg/ml), and in FIG. 1.
# [2] = system: J774 cells; conditions: 48 hours
# Description: Nitric oxide is a proinflammatory mediator produced by macrophages. The classic stimulus for nitric oxide production is lipopolysaccharide (LPS). Other molecules derived from pathogens such as hsp60 also induce macrophages to produce nitric oxide. Nitric oxide is usually produced by cells in conjunction with TNFα, IL-1 and IL-6.
# The effect of p277(Val^6-Val^11) was tested on the production of nitric oxide from a macrophage cell line both the direct effect and the effect of p277(Val^6-Val^11) on the nitric oxide produced in response to hsp60.
# The assay method is described in full in WO 01/43691. Briefly, J774 cells (2×10^5 cells/assay) were incubated for 48 hours with LPS, hsp60 or p277(Val^6-Val^11) or in inhibition assay, the cells were incubated with hsp60 at various concentrations in the presence or absence of 20 μg/ml p277(Val^6-Val^11). After 48 hours the supernatant was collected and tested for nitric oxide. The test for nitric oxide is performed by mixing an equal volume of the cell supernatant with Griess reagent and measuring the resultant color at 550 nm.
# [3] = dendritic cells educated with 5 μg/ml
# [4] = dendritic cells educated with 50 μg/ml
sequence,measurement,setting,value
VLGGGVALLRVIPALDSLTPANED [p277(Val^6-Val^11)],IL-4 produced by T cells after exposure of dendritic cells (in words),[1]; compared with non-exposed dendritic cells,more IL-4 than non-exposed dendritic cells
same,IFN secretion of T cells,[1]; [3],722.22 pg/mL
same,IL-4 secretion of T cells,[1]; [3],36.96 pg/mL
same,IL-10 secretion of T cells,[1]; [3],32.53 pg/mL
same,IL-12 secretion of T cells,[1]; [3],177.50 pg/mL
same,IFN secretion of T cells,[1]; [4],373.89 pg/mL
same,IL-4 secretion of T cells,[1]; [4],82.29 pg/mL
same,IL-10 secretion of T cells,[1]; [4],27.15 pg/mL
same,IL-12 secretion of T cells,[1]; [4],82.50 pg/mL
same,direct stimulation of nitric oxide production,[2],Under no conditions did the peptide stimulate nitric oxide production
same,inhibition of hsp60 induced nitric oxide,[2]; hsp60 at various concentrations with 20 μg/ml peptide,Neither did it inhibit the hsp60 induced nitric oxide produced
